{"source": "patent US20230137092A1", "about": "“Composition and Method for the Treatment and Prevention of Cardiac, Pulmonary, Dermal, and Renal Fibrosis” (EMERALD HEALTH PHARMACEUTICALS INC., priority 2020, published 2023)", "type_in_all_cases": "in vivo, mouse", "key": {"[1]": {"experiment": "Weight and behaviour observation during the preventive Ang II protocol", "conditions": "20 mg/kg daily oral gavage", "procedure": "Ang II causes myocardial fibrosis in a short period of time (Sopel M et al., 2011, Lab. Invest., 91:565-578) characterized by collagen accumulation and after 14 days of Ang II infusion (Sigusch H H et al., 1996, Cardiovascular Research, 31:546-554). […] Subcutaneous infusion of Ang II using ALZET® osmotic pumps was used to study compound preventive effects. ALZET® osmotic minipumps (Model #2004, Charles Rives, Barcelona, Spain) delivering of Ang II (1.0 mg kg^− min^−) (Sigma-Aldrich, Madrid, Spain) for two weeks. Compound treatment was daily administered in parallel, one day before of the implantation of the subcutaneous pump, beneath the mid scapular loose skin and consisted of daily oral gavage of compound (20 mg/kg) or vehicle (Corn Oil/Maisine CC, 1/1). Mice were acclimated to manipulators for a week previously to the experiments in order to reduce stress and allow the detection of subtle changes in behavior by researchers. […] Neither piloerection nor hunched appearances were appreciated during the experimental procedures. Mice were sacrificed by cervical dislocation and the heart, aorta, skin, and kidney were removed and processed for histological examination or were frozen for further analysis."}, "[2]": {"experiment": "Weight and behaviour observation during the therapeutic Ang II protocol", "conditions": "20 mg/kg daily oral gavage", "procedure": "For the therapeutic model, infusion of Ang II for four weeks and the compound of Formula (VIII) (20 mg/kg) was administrated after two weeks of pump implantation. Subcutaneous infusion of Ang II using ALZET osmotic minipumps was used to study the preventive effects of the compound ALZET® osmotic minipumps (Model #2004, Charles Rives, Barcelona, Spain) delivering of Ang II (500 ng kg^−1 min^−1) (Sigma-Aldrich, Madrid, Spain) for four weeks. Compound treatment was daily administered in parallel, two weeks after the implantation of the subcutaneous pump, beneath the midscapular loose skin and consisted of daily oral gavage of compound of Formula (VIII) (20 mg/kg) or vehicle (Corn Oil/Maisine CC, 1/1). Mice were acclimated to manipulators for a week previously to the experiments in order to reduce stress and allow the detection of subtle changes in behavior by researchers. […] Neither piloerection nor hunched appearances were appreciated during the experimental procedures. Mice were sacrificed by cervical dislocation and the heart, aorta, kidney, and lung were removed and processed for histological examination or were frozen for further analysis."}, "[3]": {"test_system": "E2F pathway", "experiment": "Real-time quantitative PCR of E2F pathway markers in cardiac tissue, Ang II preventive model", "conditions": "Ang II mice; #p<0.05 versus Ang II group"}, "[4]": {"test_system": "cardiac myofibroblast proliferation", "experiment": "Ki67 immunostaining of left ventricle sections (myofibroblast proliferation), Ang II preventive model", "conditions": "two weeks after Ang II infusion; ###p<0.001 versus Ang II group", "procedure": "Proliferation of fibroblast is an important event of Ang II-induced fibrosis and plays an important role in cardiac fibrosis. […] Ki 67 is a protein that is encoded by the MKI67 gene and is a cellular marker for proliferation. Cardiac tissue sections ([…]) were deparaffinized and boiled for 10 minutes in sodium citrate buffer (10 mM, pH 6.0) (Sigma-Aldrich, Madrid, Spain) for antigen retrieval. The sections were then incubated in a PBS washing buffer containing 0.1% Triton X-100 (Sigma-Aldrich, Madrid, Spain) three times for 10 minutes. Nonspecific binding was blocked with 3% bovine serum albumin (BSA) (Sigma-Aldrich, Madrid, Spain). The sections were incubated overnight at 4° C. with Ki 67 antibody (1:100 dilution, ab15580, Abcam, Cambridge, UK). After three washes for 10 minutes each in wash buffer, slides were incubated with secondary antibody anti-rabbit Texas Red (1:100 dilution, #A-6399, Thermo Fischer Scientific, Waltham, Mass., USA) for 1 hour at room temperature in the dark. […] All images were acquired using a spectral confocal laser-scanning microscope LSM710, (Zeiss, Jena, Germany) with a 63× Plan-Apochromat oil immersion lens and quantified in 10-15 randomly chosen fields using ImageJ software (rsb.info.nih.gov/ij/)."}, "[5]": {"test_system": "Ang II-induced cardiac fibrosis", "experiment": "Ang II-induced cardiac fibrosis, preventive model: collagen by Sirius red/fast green in left ventricle", "conditions": "vs Ang II group", "procedure": "Ang II causes myocardial fibrosis in a short period of time (Sopel M et al., 2011, Lab. Invest., 91:565-578) characterized by collagen accumulation and after 14 days of Ang II infusion (Sigusch H H et al., 1996, Cardiovascular Research, 31:546-554). […] Subcutaneous infusion of Ang II using ALZET® osmotic pumps was used to study compound preventive effects. ALZET® osmotic minipumps (Model #2004, Charles Rives, Barcelona, Spain) delivering of Ang II (1.0 mg kg^− min^−) (Sigma-Aldrich, Madrid, Spain) for two weeks. Compound treatment was daily administered in parallel, one day before of the implantation of the subcutaneous pump, beneath the mid scapular loose skin and consisted of daily oral gavage of compound (20 mg/kg) or vehicle (Corn Oil/Maisine CC, 1/1). Mice were acclimated to manipulators for a week previously to the experiments in order to reduce stress and allow the detection of subtle changes in behavior by researchers. […]\nInterstitial heart fibrosis was determined by the measurement of Sirius red/fast green staining (collagen content) (FIG. 1A). […]\nMice treated with Ang II presented an increase in the thickness of aortic media layer by collagen accumulation. […] Three-four random fields of each heart were photographed by standard brightfield microscopy and digitalized using a Leica DFC420c camera and analyzed using Fiji software (rsb.info.nih.gov/ij/)."}, "[6]": {"test_system": "Ang II-induced cardiac inflammation and fibrosis", "experiment": "Immunohistochemistry of inflammatory and fibrotic markers (F4/80, TNC) in left ventricle, Ang II preventive model", "conditions": "20 mg/kg oral, compared with Ang II untreated mice", "procedure": "Macrophages accumulation are the hallmark of Ang II-induced fibrosis and play important roles during the inflammatory phase. Macrophage accumulation was identified by staining with a mAb that identifies F4/80^+ cells (FIG. 3). TNC is an ECM molecule that is expressed in response to injury in various tissues. Although not detectable in the normal adult heart, it was expressed under pathological conditions (FIG. 4).\nHeart sections (Left ventricle) ([…]) were deparaffinized and boiled for 10 minutes in sodium citrate buffer (10 mM, pH 6.0) (Sigma-Aldrich, Madrid, Spain) for antigen retrieval. The sections were then incubated in a PBS washing buffer containing 0.1% Tween (Sigma-Aldrich, Madrid, Spain) three times for 10 minutes. The sections were incubated overnight at 4° C. with the following antibodies; for immunohistochemical detection of macrophages F4/80 antibody (1:50; MCA497, Bio-Rad) or with monoclonal anti-TNC (1:100 dilution, #MAB2138, RD system, Mineapolis, Minn., USA) were used for detection of this ECM protein. Slides were developed with diaminobenzidine chromogen (Agilent, Santa Clara, Calif., USA) and counterstained in Harris hematoxylin (Sigma-Aldrich, Madrid, Spain). Slides were photographed, digitalized using a Leica DFC420c camera and analyzed using Image J software."}}, "data": [{"smiles": "C=C(C)C1CCC(C)=C[C@H]1C1=C(O)C(=O)C(CCCCC)=C(NCc2ccccc2)C1=O", "note": "(stereo partly drawn) [Formula (VIII)]", "values": [{"measurement": "behavioral changes", "setting": "[1]", "value": "No behavioral changes"}, {"measurement": "mice weight", "setting": "[1]; between experimental groups", "value": "no significant changes"}, {"measurement": "behavioral changes", "setting": "[2]", "value": "No behavioral changes"}, {"measurement": "mice weight", "setting": "[2]; between experimental groups", "value": "no significant changes"}, {"measurement": "CDK1 gene expression in cardiac tissue", "setting": "[3]", "value": "down regulated"}, {"measurement": "MKi67 gene expression in cardiac tissue", "setting": "[3]", "value": "down regulated"}, {"measurement": "TOP2A gene expression in cardiac tissue", "setting": "[3]", "value": "down regulated"}, {"measurement": "myofibroblast proliferation in left ventricle (Ki67-positive cells)", "setting": "[4]", "value": "reduced"}, {"measurement": "collagen content accumulation on interstitial area of left ventricle", "setting": "[5]; Ang II 1.0 mg kg^- min^- two weeks, 20 mg/kg daily oral gavage", "value": "significantly (p<0.001) reduced"}, {"measurement": "perivascular collagen content (perivascular myocardial area)", "setting": "[5]; Ang II two weeks, 20 mg/kg oral", "value": "significant reduction"}, {"measurement": "TNC marker in left ventricle (immunostaining)", "setting": "[6]", "value": "significantly reduced"}, {"measurement": "infiltration of F4/80+ macrophages in myocardial tissue", "setting": "[6]", "value": "significantly reduced"}]}]}
